Measured values reported in patent US20060167056A1, “Polymorphs of {5-[3-(4,6-Difluoro-1H-benzoimidazol-2-yl)-1H-indazol-5-yl)-4-methyl-pyridin-3-ylmethyl}-ethyl-amine” (AGOURON PHARMACEUTICALS, INC., priority 2004, published 2006).
Entries after “also recorded” stand apart in the source; their conditions may differ.

Assays:
Type in all cases: physicochemical
[1] = DSC profiling, meta-stability of the polymorphic form; settings: DSC thermogram
Description: Different polymorphic forms of Compound 1 were also distinguished using differential scanning calorimetry (DSC). DSC measures the difference in heat energy between a solid sample and an appropriate reference with an increase in temperature. DSC thermograms are characterized by endotherms (indicating energy uptake) and also by exotherms (indicating energy release), typically as the sample is heated. The DSC thermographs were obtained using a TA Instrument DSC Q-1000 instrument at a scan rate of 10° C./min over a temperature range of 25-300° C. Samples were weighed into aluminum crucibles that were sealed and punctured with a single hole. The extrapolated onset of melting temperature and, where applicable, the onset of dehydration/desolvation temperature, were also calculated. […] For any given example, the observed endotherms may also differ from instrument to instrument; however, it will generally be within the ranges defined herein provided the instruments are calibrated similarly.
(§1) Polymorph Form A is a meta-stable solvate form of Compound 1. Form A is chemically stable at 40° C. at 75% relative humidty for at least 6 weeks. […] The 6 week DSC thermogram, FIG. 2G, indicates an endotherm onset at 257° C. at a scan rate of 10° C./min.
FIG. 3A is an X-ray powder diffractogram of polymorph Form C of Compound 1. […]

[2] = Stability study at 40° C. at 75% relative humidity (X-ray powder diffraction and DSC, initial vs 6 weeks)
Description: (§2) The present invention provides several polymorphic crystalline forms of Compound 1. Each crystalline form of the compound can be characterized by one or more of the following: X-ray powder diffraction pattern (i.e., X-ray diffraction peaks at various diffraction angles (2θ)), melting point onset (and onset of dehydration for hydrated forms) as illustrated by endotherms of a differential scanning calorimetry (DSC) thermogram, Raman spectra, thermal gravimetric analysis (TGA), solid state ^13C and ^19F nuclear magnetic resonance (SSNMR) spectrum, aqueous solubility, light stability under International Conference on Harmonization (ICH) high intensity light conditions, and physical and chemical storage stability.
as §1
(§3) Polymorph Form B is physically and chemically stable at 40° C. at 75% relative humidity for at least six weeks.
FIG. 2A is an X-ray powder diffractogram of polymorph Form B of Compound 1. Form B was further characterized by Raman spectra, ^13C solid state NMR, ^19F solid state NMR, DSC profiling and TGA analysis.

Aqueous solubility = experiment: Aqueous solubility
Description: as §2, §3

stability class of the polymorphic form [1]	chemically stable, duration [2]	physical stability, initial X-Ray powder diffraction data vs 6 week stability X-ray data ([2]; 6 weeks, XRPD)	solubility (Aqueous solubility; aqueous, aqueous buffer, pH=4, read-out: initial aqueous solubility) [mg/mL]	behaviour of the aqueous solution after time (Aqueous solubility; pH=4, after time)	Structure (SMILES)	polymorph conversion, initial DSC thermogram vs 6 week DSC thermogram ([2]; 6 weeks, DSC scan rate 10° C./min)
meta-stable	at least 6 weeks	appears to be physically stable	–	–	CCNCc1cncc(-c2ccc3[nH]nc(-c4nc5c(F)cc(F)cc5[nH]4)c3c2)c1C [Form A, {5-[3-(4,6-Difluoro-1H-benzoimidazol-2-yl)-1H-indazol-5-yl]-4-methyl-pyridin-3-ylmethyl}-ethyl-amine]	small conversion of Form A to Form B; also recorded: a small amount of Form A had been converted to Form B
–	at least six	–	> 20	the solution has been seen to gel	CCNCc1cncc(-c2ccc3[nH]nc(-c4nc5c(F)cc(F)cc5[nH]4)c3c2)c1C [Form B, {5-[3-(4,6-Difluoro-1H-benzoimidazol-2-yl)-1H-indazol-5-yl]-4-methyl-pyridin-3-ylmethyl}-ethyl-amine]	–
meta-stable	–	–	–	–	CCNCc1cncc(-c2ccc3[nH]nc(-c4nc5c(F)cc(F)cc5[nH]4)c3c2)c1C [Form C, {5-[3-(4,6-Difluoro-1H-benzoimidazol-2-yl)-1H-indazol-5-yl]-4-methyl-pyridin-3-ylmethyl}-ethyl-amine]	–
